Laboratory results from patent US4427671A, “Steroids esterified in position 17 and thioesterified in position 21, a process for preparing them and their use as medicaments” (priority 1981, dated 1984).

Assays:
Format in all cases: in vivo, male Sprague-Dawley I.O.P.S. rats
granuloma = assay: Local anti-inflammatory activity: inhibition of granuloma formation around implanted cotton wool pellet; settings: for R 1 (relative local anti-inflammatory activity compared with betamethasone 17,21-dipropionate): D.P.B. = 1, calculated from ED50; for R 1 (relative local anti-inflammatory activity compared with betamethasone 17,21-dipropionate) / ED50 (local anti-inflammatory activity, 50% inhibition in granuloma weight): Table 1; for activity compared with betamethasone 17,21-dipropionate (times greater): local anti-inflammatory test; for ED50 (local anti-inflammatory activity, 50% inhibition in granuloma weight): rat, cotton pellet granuloma, six days after implantation
Protocol: A. Winter and C. C. Porter (J. Am. Pharm. Ass. 1957, 46, 9, pages 515-519).
(§1) The principle of the test consists in implanting a pellet of cotton wool in the dorsal subcutaneous tissue of the animal. The corticoids to be studied are added to the pellet so that the following tests can be carried out:
(1) Determination of the local anti-inflammatory activity
The presence of products within the pellet may inhibit or prevent the formation of a granuloma.
(§2) The animals are divided into random homogeneous groups of 10 male Sprague-Dawley I.O.P.S. rats with a body weight of between 100 and 120 grams.
(§3) The pellets to be implanted weigh from 35 to 40 mg and are prepared from balls of dental cotton wool. Before being inserted, each pellet is weighed and impregnated with the precise quantity of the product which is to be studied, dissolved in 0.2 ml of chloroform. The chloroform is eliminated by evaporation over a period of 24 hours at ambient temperature.
(§4) Before implantation, each pellet is impregnated with a solution of antibiotics:
Streptomycin 0.1 gram/ml.
(§5) The animals are anaesthetised with ether, and then two pellets are implanted in each animal in the dorsal subcutaneous tissue, on each side of the median line:
(§6) on the left, the pellet containing the product to be tested (treated animal) or the carrier only (control animal);
(§7) on the right, the pellet containing the carrier only.
(§8) The animals are given normal food and are sacrificed six days after the pellets have been implanted.
(1) Local anti-inflammatory activity
The pellets surrounded by granulomatous tissue are carefully removed and weighed, and then dried until a constant weight is obtained.
The relative activity of the test products compared with betamethasone 17,21-dipropionate is calculated according to the following equation: [formula]

[1] = Systemic activity after local administration: effect on weight gain; settings: rat, in vivo, 8640 min
Protocol: (§9) The pharmacological activity of the products described in the invention was tested in the rat using a technique similar to that described by C. A. Winter and C. C. Porter (J. Am. Pharm. Ass. 1957, 46, 9, pages 515-519).
as §1
(§10) (2) Determination of the systemic activity of the products after local administration
(§11) Local application of the corticoids may result, inter alia, in:
(b) Disruption of the protein metabolism which causes tissue fusion, resulting in an inhibition of the weight increase in animals.
as §2, §3, §4, §5, §6, §7, §8
(b) Effect on weight gain
The weight gain over six days is determined on the animals before they are sacrificed.
The activity of the products was expressed as the percentage inhibition in the weight gain of the treated animals compared with the weight gain in the control animals.
The ED 30 which corresponds to a 30% inhibition in the weight gain was determined.

thymus = assay: Systemic activity after local administration: effect on the weight of the thymus; settings: rat, in vivo, 8640 min
Protocol: as §9, §1, §10, §11
(a) a reduction in the defence systems of the organism, the most notable sign of which is a reduction in the weight of the animals' thymuses.
as §2, §3, §4, §5, §6, §7, §8
(2) Determination of the systemic effect
The thymuses are taken from the same animals and weighed. Using the same type of calculation, an ED 50 is determined, which corresponds to the dosage of product resulting in a 50% decrease in weight of the thymuses, compared with the control animals.

Compound | R 1 (relative local anti-inflammatory activity compared with betamethasone 17,21-dipropionate) (granuloma) | activity compared with betamethasone 17,21-dipropionate (times greater) (granuloma) | ED50 (local anti-inflammatory activity, 50% inhibition in granuloma weight) (granuloma) | ED30 (30% inhibition in the weight gain) [1] | R 3 (relative activity on weight gain compared with D.P.B.) [1] | ED50 (50% decrease in weight of the thymuses) (thymus) | R 2 (relative effect on thymus weight compared with D.P.B.) (thymus)
CCC(=O)OC1(C(=O)CSC(=O)CC)C(C)CC2C3CCC4=CC(=O)C=CC4(C)C3(F)C(O)CC21C (stereo not drawn) [Ex. 11, 9α-fluoro-11β-hydroxy-16β-methyl-pregna-1,4-diene-3,20-dione (or betamethasone) 17-propionate, 21-thiopropionate] | 134 | more than 100 times | 0.012 mg/pellet | 0.8 mg/pellet | 1 | 0.46 mg/pellet | 1.9
CCCCC(=O)OC1(C(=O)CSC(=O)CCCC)C(C)CC2C3CCC4=CC(=O)C=CC4(C)C3(F)C(O)CC21C (stereo not drawn) [Ex. 12, 9α-fluoro-11β-hydroxy-16β-methyl-pregna-1,4-diene-3,20-dione (or betamethasone) 17-valerate, 21-thiovalerate] | > 129 | more than 100 times | < 0.0125 mg/pellet | > 0.8 mg/pellet | < 1 | > 0.8 mg/pellet | < 1
CCCCC(=O)OC1(C(=O)CSC(C)=O)C(C)CC2C3CCC4=CC(=O)C=CC4(C)C3(F)C(O)CC21C (stereo not drawn) [Ex. 13, 9α-fluoro-11β-hydroxy-16β-methyl-pregna-1,4-diene-3,20-dione (or betamethasone) 17-valerate, 21-thioacetate] | 32.2 |  | 0.050 mg/pellet | 0.65 mg/pellet | 1.23 | 0.8 mg/pellet | 1.1
CC(=O)OC1(C(=O)CSC(=O)CC(C)(C)C)C(C)CC2C3CCC4=CC(=O)C=CC4(C)C3(F)C(O)CC21C (stereo not drawn) [Ex. 14, 9α-fluoro-11β-hydroxy-16α-methyl-pregna-1,4-diene-3,20-dione (or dexamethasone) 17-acetate, 21-thio-tert.butyl-acetate] | 537 | more than 100 times | 0.003 mg/pellet | 0.015 mg/pellet | 53 | 0.33 mg/pellet | 2.6
CCC(=O)OC1(C(=O)CSC(=O)CC)C(C)CC2C3CCC4=CC(=O)C=CC4(C)C3(Cl)C(O)CC21C (stereo not drawn) [Ex. 15, 9α-chloro-11β-hydroxy-16β-methyl-pregna-1,4-diene-3,20-dione (or beclomethasone) 17-propionate, 21-thiopropionate] | > 322 | more than 100 times | < 0.005 mg/pellet | 0.56 mg/pellet | 1.42 | 2.4 mg/pellet | 0.36
CCCCC(=O)SCC(=O)C1(OC(=O)CC)C(C)CC2C3CCC4=CC(=O)C=CC4(C)C3(Cl)C(O)CC21C (stereo not drawn) [Ex. 16, 9α-chloro-11β-hydroxy-16β-methyl-pregna-1,4-diene-3,20-dione (or beclomethasone) 17-propionate, 21-thiovalerate] | 13.4 |  | 0.120 mg/pellet | > 1.0 mg/pellet | < 0.8 | > 1 mg/pellet | < 0.86
CCCCC(=O)OC1(C(=O)CSC(C)=O)C(C)CC2C3CCC4=CC(=O)C=CC4(C)C3(Cl)C(O)CC21C (stereo not drawn) [Ex. 17, 9α-chloro-11β-hydroxy-16β-methyl-pregna-1,4-diene-3,20-dione (or beclomethasone) 17-valerate, 21-thioacetate] | 8.9 |  | 0.180 mg/pellet | > 1.0 mg/pellet | < 0.8 | > 1 mg/pellet | < 0.86
CCCCC(=O)OC1(C(=O)CSC(=O)CCCC)C(C)CC2C3CCC4=CC(=O)C=CC4(C)C3(Cl)C(O)CC21C (stereo not drawn) [Ex. 18, 9α-chloro-11β-hydroxy-16β-methyl-pregna-1,4-diene-3,20-dione (or beclomethasone) 17-valerate, 21-thiovalerate] | 16.8 |  | 0.096 mg/pellet | > 1.0 mg/pellet | < 0.8 | > 1 mg/pellet | < 0.86
C=C1C[C@H]2[C@@H]3CCC4=CC(=O)C=C[C@]4(C)[C@H]3[C@@H](O)C[C@]2(C)[C@@]1(OC(=O)CC)C(=O)CSC(=O)CC [Ex. 19, 11β-hydroxy-16-methylene-pregna-1,4-diene-3,20 dione (or prednylidene)17-propionate, 21-thiopropionate] | 0.89 |  | 1.800 mg/pellet | 0.015 mg/pellet | 53 | 7 mg/pellet | 0.12
